Source: patent publication US5811445A, “Method of preventing abnormal stimulation of AT1 and AT2 receptors” (Roussel Uclaf, priority 1994, dated 1998)
Where two headings read alike, the source gives them in different places.

Columns and labels:
[1] = target: T1, AT1 receptor of angiotensin II (Rattus norvegicus, UniProt P25095); assay: Test on the AT1 receptor of angiotensin II (displacement of 125I angiotensin II, rat liver membranes); assay type: binding
T1 construct: A fresh membrane preparation obtained from rat's liver is used; from tissue; host or cells: rat liver membranes
T1 sequence (P25095 1-359): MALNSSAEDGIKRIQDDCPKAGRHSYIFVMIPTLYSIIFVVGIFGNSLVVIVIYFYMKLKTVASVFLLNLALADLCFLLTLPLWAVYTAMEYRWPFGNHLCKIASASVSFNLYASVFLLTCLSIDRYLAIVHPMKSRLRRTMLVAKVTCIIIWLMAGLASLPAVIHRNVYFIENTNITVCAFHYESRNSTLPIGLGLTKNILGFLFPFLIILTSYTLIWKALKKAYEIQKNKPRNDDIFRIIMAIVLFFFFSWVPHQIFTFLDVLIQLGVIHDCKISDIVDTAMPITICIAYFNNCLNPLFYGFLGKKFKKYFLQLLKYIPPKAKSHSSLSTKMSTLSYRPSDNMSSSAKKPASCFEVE
Description: 1 - Test on the AT1 -receptor of angiotensin II
A fresh membrane preparation obtained from rat's liver is used. The tissue is ground up in a polytron in a 50 mM Tris buffer pH 7.4, the grinding is followed by 3 centrifugations at 30,000 g for 15 minutes with intermediate take up of the pellets in the Tris buffer pH 7.4.
(§1) (The product is first tested with 3×10^-5 M three times). When the tested product displaces more than 50% of the radioactivity specifically bound to the receptor, it is tested again according to a range of 7 concentrations in order to determine the concentration which inhibits by 50% the radioactivity specifically bound to the receptor. In this way the 50% inhibitory concentration is determined).
(§2) After incubation at 25° C. for 150 minutes, placing in a water-bath at 0° C. for 5 minutes, filtration under vacuum, and rinsing with Tris buffer pH 7.4, the radioactivity is counted in the presence of a scintillating solid.

[2] = target: T2, AT2 receptor of angiotensin II (Oryctolagus cuniculus, UniProt G1T351); assay: Test on the AT2 receptor of angiotensin II (displacement of 125I angiotensin II, rabbit uterus membranes); assay type: binding
T2 construct: A fresh membrane preparation obtained from rabbit's uterus is used; from tissue; host or cells: uterus membranes of estradiol-treated rabbits
T2 sequence (G1T351 1-363): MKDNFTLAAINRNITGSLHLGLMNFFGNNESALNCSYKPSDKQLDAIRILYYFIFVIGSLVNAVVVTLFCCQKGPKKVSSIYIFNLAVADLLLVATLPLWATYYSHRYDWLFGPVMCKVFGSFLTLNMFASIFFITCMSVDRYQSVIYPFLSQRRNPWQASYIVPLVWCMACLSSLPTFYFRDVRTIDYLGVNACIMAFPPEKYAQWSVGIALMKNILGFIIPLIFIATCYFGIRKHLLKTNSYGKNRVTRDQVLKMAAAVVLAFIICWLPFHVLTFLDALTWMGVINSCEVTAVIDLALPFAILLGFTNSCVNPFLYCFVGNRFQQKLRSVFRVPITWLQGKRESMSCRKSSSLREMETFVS
Description: 2) Test on the AT2 receptor of angiotensin II
The tissue is ground up in a polytron in a 50 mM Tris buffer pH 7.4, and the grinding is followed by 3 centrifugations at 30,000 g for 15 minutes, with intermediate take up of the pellets in the Tris buffer pH 7.4.
The homogenate obtained is preincubated for 20 minutes at 25° C. in the presence of 10 mM dithiothreitol, then brought back to 0°-4° C.
as §1, with “The” for “(The”, “at 3.10^-5” for “with 3×10^-5”, “times.” for “times).”, “determined.” for “determined).”
as §2

[3] = system: angiotensin II (pressure effects); assay: Test for antagonistic activity of angiotensin II in the demedullated rat; assay type: in vivo, Male Sprague-Dawley rats; conditions: IV, inhibition of pressure effects of angiotensin II (0.75 micrograms/kg), read-out: ID50 IV
Description: 3 - Test for antagonistic activity of angiotensin II in the demedullated rat
Male Sprague-Dawley rats (250 to 350 g) are anaesthetized by an intraperitoneal injection with sodium pentobarbital (60 mg/kg). The diastolic arterial pressure is recorded by means of a heparin catheter (PE50) introduced into the left carotid of the animal, and connected to a pressure processor (Gould, Pressure Processor) via a Gould pressure sensor.
A catheter is introduced into the right jugular vein of the animal in order to allow injection of the molecules being studied.
The animal is placed under assisted respiration. A bilateral section of the vagus nerves is carried out. The rat is then demedullated.
After a sufficient stabilization period, study of the antagonism of the molecules vis-a-vis angiotensin II (Hypertensin, CIBA) is carried out in the following manner:
1 - Three consecutive injections of angiotensin II (0.75 micrograms/kg) 15 minutes apart allow a reproducible and stable pressure response to be obtained.
2 - While maintaining a periodicity of 15 minutes for the administration of angiotensin II, the molecules (0.01 to 10 mg/kg) are injected 5 minutes before the angiotensin II.
The pressure effects of angiotensin II in the presence of the antagonist are expressed as a percentage of the pressure effects of angiotensin II administered alone. The 50% inhibitory dose (ID50) of the effect studied is thus determined.
Each animal is considered as its own control.

[4] = system: angiotensin II (pressure effects); assay: as above; assay type: in vivo, Male Sprague-Dawley rats; conditions: PO, inhibition of pressure effects of angiotensin II (0.75 micrograms/kg), read-out: ID50 PO
[5] = rat liver membrane, 125I angiotensin II, 25° C., 150 minutes, read-out: AT1 Receptor IC50
[6] = rabbit uterus membrane (estradiol pre-treated), 125I angiotensin II, 25° C., 150 minutes, read-out: AT2 Receptor IC50
[7] = products P1 to P13, expressed in nM, read-out: On AT1 receptor IC50
[8] = products P1 to P13, expressed in nM, read-out: On AT2 receptor IC50

Structure (SMILES) | IC50 [1, 5] | IC50 [2, 6] | IC50 [1, 7] | IC50 [2, 8] | ED50 [3] | ED50 [4]
CCCCC(O)(C(=O)O)c1c(SC)nc(CCC)n1Cc1ccc(-c2ccccc2S(=O)(=O)NC(=O)NCc2ccccc2)cc1 (stereo not drawn) [Example 32, sodium alpha-butyl alpha-hydroxy 4-(methylthio) 1-[(2'-(((((phenylmethyl)amino)carbonyl)amino)sulphonyl) (1,1'-biphenyl) 4-yl)methyl] 2-propyl 1H-imidazole 5-acetate] | 0.5 nM | 0.8 nM |  |  | 0.46 mg/kg | 
CCCCc1nc(SC)c(C(N)=O)n1Cc1ccc(-c2ccccc2S(=O)(=O)NC(=O)NCCC)cc1 [Example 35, 2-butyl 4-(methylthio) 1-((2'-((((propylamino)carbonyl)amino)sulphonyl) (1,1'-biphenyl) 4-yl)methyl) 1H-imidazole 5-carboxamide] |  |  |  |  | 0.05 mg/kg | 
CCCc1nc(SC(F)F)c(C(=O)O)n1Cc1ccc(-c2ccccc2S(=O)(=O)NC(=O)NCc2ccccc2)cc1 [Example 46, 4-((difluoromethyl)thio) 1-((2'-(((((phenylmethyl)amino)carbonyl)amino)sulphonyl) (1,1'-biphenyl) 4-yl)methyl) 2-propyl 1H-imidazole 5-carboxylic acid] | 0.11 nM | 0.26 nM |  |  | 0.26 mg/kg | 2 mg/kg
CCCc1nc(SC(F)F)c(C(=O)O)n1Cc1ccc(-c2ccccc2S(=O)(=O)NC(=O)NCCc2cccs2)cc1 [Example 47] | 0.03 nM |  |  |  | 0.33 mg/kg | 3 mg/kg
CCCc1nc(SC)c(C(=O)O)n1Cc1ccc(-c2ccccc2S(=O)(=O)NC(=O)Nc2ccccc2)cc1 [Example 62, 4-(methylthio) 1-((2'-((((phenylamino)carbonyl)amino)sulphonyl) (1,1'-biphenyl) 4-yl)methyl) 2-propyl 1H-imidazole 5-carboxylic acid] |  |  |  |  | 0.52 mg/kg | 
CCCc1nc(SC(F)F)c(C(=O)O)n1Cc1ccc(-c2ccccc2S(=O)(=O)NC(=O)NCc2cccs2)cc1 [Example 50, 4-((difluoromethyl)thio) 2-propyl 1-((2'-(((((2-thienylmethyl)amino)carbonyl)amino)sulphonyl) (1,1'-biphenyl) 4-yl)methyl) 1H-imidazole 5-carboxylic acid] | 0.06 nM | 7.4 nM |  |  | 0.13 mg/kg | 
CCCCc1nc(SC)c(C(C)(O)C(=O)O)n1Cc1ccc(-c2ccccc2S(=O)(=O)NC(=O)OCc2ccccc2)cc1 (stereo not drawn) [Example 7, 2-butyl alpha-hydroxy alpha-methyl 4-(methylthio) 1-[(2'-((((phenylmethoxy)carbonyl)amino)sulphonyl) (1,1'-biphenyl) 4-yl)methyl] 1H-imidazole 5-acetic acid] | 0.7 nM | 5.2 nM |  |  | 0.6 mg/kg | 
CCCCc1nc(SC)c(C(O)CC(=O)O)n1Cc1ccc(-c2ccccc2S(=O)(=O)NC(=O)NCc2ccccc2)cc1 (stereo not drawn) [Example 65, 2-butyl beta-hydroxy 4-(methylthio) 1-((2'-(((((phenylmethyl)amino)carbonyl)amino)sulphonyl) (1,1'-biphenyl) 4-yl)methyl) 1H-imidazole 5-propionic acid] |  |  |  |  | 0.05 mg/kg | 
CCCc1nc(SC(F)F)c(C(=O)O)n1Cc1ccc(-c2ccccc2S(=O)(=O)NC(=O)NCCc2ccccc2)cc1 [Example 48] |  |  |  |  | 0.64 mg/kg | 
CCCCc1nc(SC)c(C(=O)O)n1Cc1ccc(-c2ccccc2S(=O)(=O)NC(=O)C(c2ccccc2)c2ccccc2)cc1 [Example 30, 2-butyl 1-[(2'-(((diphenylacetyl)amino)sulphonyl) (1,1'-biphenyl) 4-yl)methyl] 4-(methylthio) 1H-imidazole 5-carboxylic acid] |  |  |  |  | 0.93 mg/kg | 

The next lines start with results.

IC50 [1, 5] | IC50 [2, 6] | IC50 [1, 7] | IC50 [2, 8] | Structure (SMILES) | ED50 [3] | ED50 [4]
0.2 nM | 5.9 nM |  |  | CCCc1nc(SC)c(C(=O)O)n1Cc1ccc(-c2ccccc2S(=O)(=O)NC(=O)NCc2ccccc2)cc1 [Example 25, 4-(methylthio) 1-[(2'-(((((phenylmethyl)amino)carbonyl)amino)sulphonyl) (1,1'-biphenyl) 4-yl)methyl] 2-propyl 1H-imidazole 5-carboxylic acid] | 0.22 mg/kg | 1.45 mg/kg
0.2 nM | 2 nM |  |  | CCCc1nc(SC)c(C(=O)O)n1Cc1ccc(-c2ccccc2S(=O)(=O)NC(=O)NCC2CCCCC2)cc1 [Example 23, sodium 1-((2'-(((((cyclohexylmethyl)amino)carbonyl)amino)sulphonyl) (1,1'-biphenyl) 4-yl)methyl] 4-(methylthio) 2-propyl 1H-imidazole 5-carboxylate] | 0.3 mg/kg | 1.54 mg/kg
0.05 nM |  | 0.23 nM | 17 nM | CCCCc1nc(SC)c(C(=O)O)n1Cc1ccc(-c2ccccc2S(=O)(=O)NC(=O)NCC2CCCCC2)cc1 [Example 75, 2-butyl 1-((2'-(((((cyclohexylmethyl)amino)carbonyl)amino)sulphonyl) (1,1'-biphenyl) 4-yl)methyl) 4-(methylthio) 1H-imidazole 5-carboxylic acid] | 0.35 mg/kg | 
0.07 nM | 1.7 nM |  |  | CCCc1nc(SC(F)F)c(C(=O)O)n1Cc1ccc(-c2ccccc2S(=O)(=O)NC(=O)NCC2CCCCC2)cc1 [Example 45, 1-((2'-(((((cyclohexylmethyl)amino)carbonyl)amino)sulphonyl) (1,1'-biphenyl 4-yl)methyl) 4-(difluoromethyl)thio) 2-propyl 1H-imidazole 5-carboxylic acid] | 0.22 mg/kg | 1.1 mg/kg
 |  | 0.19 nM | 53 nM | CCCCc1nc(SC)c(C(=O)O)n1Cc1ccc(-c2ccccc2S(=O)(=O)NC(=O)OCc2ccsc2)cc1 [Example P9, 2-butyl 4-(methylthio) 1-[(2'-((((3-thienyl)methoxycarbonyl)amino)sulphonyl) (1,1'-biphenyl) 4-yl)methyl] 1H-imidazole 5-carboxylic acid] |  | 
 |  | 0.7 nM | 31 nM | CCCCc1nc(SC)c(C(=O)O)n1Cc1ccc(-c2ccccc2S(=O)(=O)NC(=O)OCC2CC=CCC2)cc1 (centres unmarked) [Example P10, 2-butyl 1-[(2'-((((cyclohexen 4-yl)methoxycarbonyl)amino)sulphonyl) (1,1'-biphenyl) 4-yl)methyl] 4-methylthio 1H-imidazole 5-carboxylic acid] |  | 
